Here are results for 2 compounds from patent US20160114044A1, “COMPOSITON BASED ON BIOCOMPATIBLE ANIONIC POLYMER FOR DRUG DELIVERY AND PREPARING METHOD THEREOF” (RESEARCH & BUSINESS FOUNDATION SUNGKYUNKWAN UNIVERSITY, priority 2014, published 2016).

The nature of data set [1]: Stability and size of micro-dispersions in distilled water. The settings on record: dispersed in water without γ-PGA. In kind it is physicochemical. How it is done: The particle size of the redispersed solutions of γ-PGA/Ptx and γ-PGA/Imq was measured using Electrophoretic Light Scattering-ELS Z (Otsuka Electronics, Osaka, Japan). The stability of the dispersion was assessed by observing the samples for aggregation and phase separation after storing the sample at 4° C. for 1 week after dispersion in distilled water. The morphology of theses micro-dispersions were observed through FE-SEM (JSM-7000F, JEOL Ltd. Japan) and FE-TEM (JEM-2100F HR, JEOL Ltd. Japan). For the SEM sample preparation, the lyophilized and redispersed suspension was deposited on a silicon wafer plate and vacuum-dried to remove water, followed by platinum coating using a Technics Hummer II sputter coater at 30 mA for 90 s. For TEM sample preparation, a drop (2 μL) of redispersed suspension was placed onto a formvar/carbon coated copper grid, followed by vacuum-drying to evaporate water.
Distinct monodisperse peaks for γ-PGA/Imq and γ-PGA/Ptx/Imq were observed, indicating uniform size distribution (FIG. 3). In case of γ-PGA/Ptx, two peaks were observed, which might be due to a high aspect ratio of the paclitaxel crystal.

Data set [2] can be described thus: In-vitro viability assay (MTS). In kind it is cell-based. The settings on record: mouse, bone marrow derived dendritic cells (BMDCs), after 48 h, normalized to untreated cells, read-out: cell viability / proliferation of BMDCs.
Experimental: BMDCs were isolated from mouse bone marrow as reported previously. MTS assay for analysis of mitochondrial activity was used as a measure of cell viability. 1×10^4 cells in 100 μL media were seeded per well in a 96 well plate (Corning Costar, Cambridge, Mass., USA). 100 μl of sample dispersion was added to cell culture media and incubated for 24 h and 48 h at 37° C. and 5% CO2. After the incubation, 20 μL of MTS solution-Cell Titer 96 Aqueous One Solution kit (Promega, Madison, Wis., USA) was added to each well and incubated for 2 h. The absorbance of the samples was measured at 490 nm (VersaMax, Molecular Devices, Sunnyvale, Calif., USA) and normalized with respect to absorbance of untreated cells.

SMILES strings stand for the structures.

On to `CC(C)Cn1cnc2c(N)nc3ccccc3c21` [imiquimod], for which, in data set [1], the “dispersion state in water without γ-PGA” value was “aggregation and precipitation”. In data set [2], the viability at 48 h came to 250%.
For the compound `CC(=O)O[C@H]1C(=O)[C@@]2(C)[C@H]([C@H](OC(=O)c3ccccc3)[C@]3(O)C[C@H](OC(=O)[C@H](O)[C@@H](NC(=O)c4ccccc4)c4ccccc4)C(C)=C1C3(C)C)[C@]1(OC(C)=O)CO[C@@H]1C[C@@H]2O` [paclitaxel], the “dispersion state in water without γ-PGA” value in data set [1] was “aggregation and precipitation”.
